# Target: T1, human TREK-1 (Homo sapiens, UniProt O95069)
# T1 construct: expressed in transfected cells
# T1 sequence (O95069 1-426): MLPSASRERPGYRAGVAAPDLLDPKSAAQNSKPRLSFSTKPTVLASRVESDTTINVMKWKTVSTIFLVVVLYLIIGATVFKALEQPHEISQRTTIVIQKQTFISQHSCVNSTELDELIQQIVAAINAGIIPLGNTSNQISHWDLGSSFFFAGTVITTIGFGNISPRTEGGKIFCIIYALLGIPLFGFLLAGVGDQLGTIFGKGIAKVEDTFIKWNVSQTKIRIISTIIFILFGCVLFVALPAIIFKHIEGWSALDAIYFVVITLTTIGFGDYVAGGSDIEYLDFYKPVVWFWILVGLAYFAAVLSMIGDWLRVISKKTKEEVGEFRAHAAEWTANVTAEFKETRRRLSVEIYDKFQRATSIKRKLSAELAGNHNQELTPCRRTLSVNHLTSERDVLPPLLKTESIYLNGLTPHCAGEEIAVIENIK
# Experiment: TREK-1 Thallium (Tl+) flux assay, Method 1
# Assay type: cell-based
# Settings: TREK-1 Thallium (Tl+) flux assay; no *^12 (Method 2) mark on these rows
# How it was run: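 Readout: Thallos fluorescence ratio, taken 25 s post-thallium relative to the pre-thallium baseline average, then converted to % inhibition. Cells were CHO-K1 stably expressing human TREK-1, dye-loaded and exposed to test compound (vehicle 0.3% DMSO) for 10 min prior to thallium stimulation.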
row,IC50 [nM],Compound
1,590,"Cc1cc(C#Cc2ccc(F)cc2)cnc1NC(=O)c1c(Cl)cnn1CC1C2CC1CN(C(=O)C(C)C)C2 (centres unmarked) [Compound 314, 4-chloro-N-(5-((4-fluorophenyl)ethynyl)-3-methylpyridin-2-yl)-1-((3-isobutyryl-3-azabicyclo[3.1.1]heptan-6-yl)methyl)-1H-pyrazole-5-carboxamide]"
2,340,"Cc1cc(C#Cc2ccccc2)cc(F)c1NC(=O)c1c(Cl)cnn1C[C@H]1CCOC1 [Compound 219, (R)-4-chloro-N-(2-fluoro-6-methyl-4-(phenylethynyl)phenyl)-1-((tetrahydrofuran-3-yl)methyl)-1H-pyrazole-5-carboxamide]"
3,260,"CC(=O)N1C[C@H]2C[C@H](n3ncc(Cl)c3C(=O)Nc3ncc(C#Cc4ccccc4)cc3C)C[C@H]2C1 [Compound 260, 1-[(3aR,5s,6aS)-2-acetyloctahydrocyclopenta[c]pyrrol-5-yl]-4-chloro-N-[3-methyl-5-(phenylethynyl)pyridin-2-yl]-1H-pyrazole-5-carboxamide]"
4,510,"CC(C)(C)OC(=O)N1CCC(CCn2ncc(Cl)c2C(=O)Nc2ncc(C#Cc3ccccc3)cc2F)CC1 [Compound 290, tert-butyl 4-(2-(4-chloro-5-((3-fluoro-5-(phenylethynyl)pyridin-2-yl)carbamoyl)-1H-pyrazol-1-yl)ethyl)piperidine-1-carboxylate]"
5,610,"Cc1cc(C#Cc2ccccc2)cnc1NC(=O)c1c(Cl)cnn1[C@H]1C[C@@H]2CN(C(=O)C(C)C)C[C@@H]2C1 [Compound 317, 4-chloro-N-[3-methyl-5-(phenylethynyl)pyridin-2-yl]-1-[(3aR,5s,6aS)-2-(2-methylpropanoyl)octahydrocyclopenta [c]pyrrol-5-yl]-1H-pyrazole-5-carboxamide]"
6,610,"CC1CN(C(=O)OC(C)(C)C)CCC1Cn1ncc(Cl)c1C(=O)Nc1ncc(C#Cc2ccccc2)cc1F (centres unmarked) [Compound 318, tert-butyl 4-((4-chloro-5-((3-fluoro-5-(phenylethynyl)pyridin-2-yl)carbamoyl)-1H-pyrazol-1-yl)methyl)-3-methylpiperidine-1-carboxylate]"
7,830,"Cc1cc(OCc2ccccc2)ccc1NC(=O)c1c(Cl)cnn1[C@H]1CC[C@@H](NC(=O)C2CC2)CC1 [Compound 385, N-(4-(benzyloxy)-2-methylphenyl)-4-chloro-1-(cis-4-(cyclopropanecarboxamido)cyclohexyl)-1H-pyrazole-5-carboxamide]"

# Same assay, conditions: TREK-1 Thallium (Tl+) flux assay; values without footnote *12 are Method 1
row,IC50 [nM],Compound
1,140,"Cc1cc(C#Cc2cccs2)cnc1NC(=O)c1c(Cl)cnn1CC1CCN(C(=O)C2CC2)CC1 [Compound 57, 4-chloro-1-((1-(cyclopropanecarbonyl)piperidin-4-yl)methyl)-N-(3-methyl-5-(thiophen-2-ylethynyl)pyridin-2-yl)-1H-pyrazole-5-carboxamide]"
2,290,"O=C(Nc1ncc(C#Cc2ccccc2)cc1F)c1c(Cl)cnn1-c1ccc2c(c1)OCCO2 [Compound 189, 4-chloro-1-(2,3-dihydrobenzo[b][1,4]dioxin-6-yl)-N-(3-fluoro-5-(phenylethynyl)pyridin-2-yl)-1H-pyrazole-5-carboxamide]"
3,280,"CC(C)C(=O)N1CC2(CC(n3ncc(Cl)c3C(=O)Nc3ncc(C#Cc4ccccc4)cc3F)C2)C1 [Compound 182, 4-chloro-N-(3-fluoro-5-(phenylethynyl)pyridin-2-yl)-1-(2-isobutyryl-2-azaspiro[3.3]heptan-6-yl)-1H-pyrazole-5-carboxamide]"
4,170,"CC(=O)N1CC[C@@H](n2ncc(Cl)c2C(=O)Nc2ncc(C#Cc3ccccc3)cc2C)C[C@@H]1C (single isomer, unassigned) [Compound 86, 1-[(2S,4R)-1-acetyl-2-methylpiperidin-4-yl]-4-chloro-N-[3-methyl-5-(phenylethynyl)pyridin-2-yl]-1H-pyrazole-5-carboxamide or 1-[(2R,4S)-1-acetyl-2-methylpiperidin-4-yl]-4-chloro-N-[3-methyl-5-(phenylethynyl)pyridin-2-yl]-1H-pyrazole-5-carboxamide]"

# Source: patent publication US20240182445A1 (ONO PHARMACEUTICAL CO., LTD., priority 2019, published 2024)
